Data taken from ChEMBL document CHEMBL1151032, “Local constrained shifty pseudopeptides inhibitors of rasfarnesyl transferase” (Bioorg Med Chem Lett, 1995).
One block for each compound: values may come before it.

Experiments:
[1] = target: T1, Protein farnesyltransferase (Homo sapiens, UniProt P49354+P49356); assay: In vitro inhibition of farnesyl transferase enzyme (inactive); assay type: protein-complex assay
[2] = target: Protein farnesyltransferase (Bos taurus, UniProt P29702+P49355); assay: In vitro inhibition of bovine farnesyl transferase; assay type: protein-complex assay
[3] = target: T2, Protein farnesyltransferase (Mus musculus, UniProt Q61239+Q8K2I1); assay: Inhibition of farnesyl transferase in NIH3T3 cell based assay in non-reducing (-DTT) conditions; assay type: functional
[4] = target: T2, Protein farnesyltransferase; assay: Inhibition of farnesyl transferase in NIH3T3 cell based assay under reducing (+DTT) conditions; assay type: functional
[5] = target: T1, Protein farnesyltransferase; assay: In vitro inhibition of farnesyl transferase; assay type: protein-complex assay
[6] = target: T1, Protein farnesyltransferase; assay: In vitro inhibition of Human farnesyl transferase; assay type: protein-complex assay
[7] = tested on: NIH3T3; assay: Inhibition of v-Raf-transformed NIH3T3 cell growth at 10 uM; assay type: functional; details: Mus musculus
[8] = tested on: NIH3T3; assay: Inhibition of Ha-Ras-transformed NIH3T3 cell growth at 1 uM; assay type: functional; details: Mus musculus
[9] = tested on: NIH3T3; assay: Inhibition of Ki-Ras-transformed NIH3T3 cell growth at 5 uM; assay type: functional; details: Mus musculus
[10] = tested on: NIH3T3; assay: Inhibition of Ha-Ras-transformed NIH3T3 cell growth at 5 uM; assay type: functional; details: Mus musculus
[11] = tested on: NIH3T3; assay: Inhibition of Ki-Ras-transformed NIH3T3 cell growth at 1 uM; assay type: functional; details: Mus musculus
[12] = tested on: NIH3T3; assay: Inhibition of Ki-Ras-transformed NIH3T3 cell growth at 10 uM; assay type: functional; details: Mus musculus
[13] = tested on: NIH3T3; assay: Inhibition of Ha-Ras-transformed NIH3T3 cell growth at 10 uM; assay type: functional; details: Mus musculus

Compound: CSCC[C@H](NC(=O)[C@H](Cc1ccccc1)NC[C@@H](NC[C@@H](N)CS)C(C)C)C(=O)O
- IC50 [2]: 0.021 µM

Compound: CSCCC(NC(=O)C1Cc2ccccc2CN1CC(=O)NCCSSCCNC(=O)CN1Cc2ccccc2CC1C(=O)NC(CCSC)C(=O)O)C(=O)O (stereo not given)
- IC50 [1]: Not Active

Compound: CSCC[C@H](NC(=O)[C@@H]1Cc2ccccc2CN1C(=O)CN(CCSSCCN(CC(=O)N1Cc2ccccc2C[C@H]1C(=O)N[C@@H](CCSC)C(=O)O)C(=O)OC(C)(C)C)C(=O)OC(C)(C)C)C(=O)O
- IC50 [3]: > 1000 µM
- IC50 [4]: > 1000 µM
- IC50 [5]: > 100 µM

Compound: CSCCC(NC(=O)C1Cc2ccccc2CN1CC(=O)NCCS)C(=O)O (stereo not given)
- IC50 [5]: 2 µM

Compound: CSCC[C@H](NC(=O)[C@@H]1Cc2ccccc2CN1C(=O)CN(CCS)C(=O)OC(C)(C)C)C(=O)O
- IC50 [5]: > 100 µM

Compound: COC(=O)[C@H](CCSC)NC(=O)[C@@H]1Cc2ccccc2CN1C(=O)CN(CCS)C(=O)OC(C)(C)C
- IC50 [5]: > 100 µM

Compound: COC(=O)C(CCSC)NC(=O)C1Cc2ccccc2CN1CC(=O)NCCS (stereo not given)
- IC50 [1]: Not Active

Compound: COC(=O)[C@H](CCSC)NC(=O)[C@@H]1Cc2ccccc2CN1C(=O)CNCCS
- IC50 [5]: 0.29 µM

Further lines, with some results ahead:

- IC50 [1]: Not Active
Compound: COC(=O)C(CCSC)NC(=O)C1Cc2ccccc2CN1CC(=O)NCCSSCCNC(=O)CN1Cc2ccccc2CC1C(=O)NC(CCSC)C(=O)OC (stereo not given)

- IC50 [3]: > 1000 µM
- IC50 [4]: > 1000 µM
- IC50 [5]: > 100 µM
Compound: COC(=O)[C@H](CCSC)NC(=O)[C@@H]1Cc2ccccc2CN1C(=O)CN(CCSSCCN(CC(=O)N1Cc2ccccc2C[C@H]1C(=O)N[C@@H](CCSC)C(=O)OC)C(=O)OC(C)(C)C)C(=O)OC(C)(C)C

- IC50 [2]: 0.023 µM
Compound: CSCC[C@H](NC(=O)[C@H](Cc1ccccc1)NC(=O)[C@@H](NC[C@@H](N)CS)C(C)C)C(=O)O

- IC50 [6]: 0.005 µM
Compound: CSCC[C@H](NC(=O)[C@@H]1Cc2ccccc2CN1C(=O)[C@H](C(C)C)N(C)C(=O)[C@@H](N)CS)C(=O)O

- IC50 [5]: 0.1 µM
Compound: CSCC[C@H](NC(=O)[C@@H]1Cc2ccccc2CN1C(=O)CNCCS)C(=O)O

- IC50 [3]: 100 µM
- IC50 [4]: 100 µM
- IC50 [5]: 0.145 µM
Compound: COC(=O)[C@H](CCSC)NC(=O)[C@@H]1Cc2ccccc2CN1C(=O)CNCCSSCCNCC(=O)N1Cc2ccccc2C[C@H]1C(=O)N[C@@H](CCSC)C(=O)OC
- inhibition at 10 µM [7]: 9%
- inhibition at 1 µM [8]: 9%
- inhibition at 5 µM [9]: 89%
- inhibition at 5 µM [10]: 80%
- inhibition at 1 µM [11]: 24%
- inhibition at 10 µM [12]: 97%
- inhibition at 10 µM [13]: 91%

- IC50 [3]: > 1000 µM
- IC50 [4]: > 1000 µM
- IC50 [5]: 0.05 µM
Compound: CSCC[C@H](NC(=O)[C@@H]1Cc2ccccc2CN1C(=O)CNCCSSCCNCC(=O)N1Cc2ccccc2C[C@H]1C(=O)N[C@@H](CCSC)C(=O)O)C(=O)O
